One assay has as its system Scytalidium hyalinum. Nature of the assay: Antifungal Activity Test 2: MIC by broth microdilution method (Alamar Blue). The class given is cell-based. To be noted: Neoscytalidium hyalinum. Here is the method:
(§1) The minimum inhibitory concentration (MIC) was measured by a broth microdilution method. That is, RPMI1640 medium (Sigma-Aldrich) was buffered with 0.165 M morpholine propanesulfonic acid (MOPS, Wako Pure Chemical Industries, Ltd.) to pH 7.0, and a given amount of a solution of the drug in DMSO was added thereto to prepare 2-fold dilution series within the range of 0.00098-4 μg/mL. This was added to a 96-well microplate by 100 μL, a fungal inoculum solution (100 μL, final concentration of fungi to be added: 1.0×10^4 cells/mL) was added, and the mixture was cultured at 35° C. An Alamar Blue reagent was added in advance to the culture medium (final addition concentration: 10%) and, at the time point when the Alamar Blue reagent in the drug-free growth control group changed from blue to red, the culture was discontinued and the absorbance (differential optical density at 570 nm based on 590 nm served as reference) measured. The minimum concentration of the drug that inhibited the growth of the fungus in the growth control group by 80% or more was taken as MIC. The concentration to be MIC (MIC90) in 9 strains out of the 10 strains (90%) measured was determined.
Scytalidium hyalinum strain of clinical isolate available from CBS (Netherlands) was used. The fungus was pre-cultured in an SDA medium, 0.1% (w/v) Tween 80-containing sterile saline was added to give a suspension, which was filtered through gauze to collect arthrospore. This was suspended in 0.1% (w/v) Tween 80-containing sterile saline, and added to a 20% Alamar Blue-containing medium to 2×10^4 cells/mL to give a fungal inoculum solution.
(§2) Each drug was used after dissolving in DMSO (dimethyl sulfoxide).
The test method was the same as in the aforementioned antifungal activity test 1, and the minimum concentration of the drug that inhibited the growth of the fungus in the growth control group by 80% or more was taken as MIC. The MIC range of the 4 strains measured and the geometric mean (GM) of each drug were determined.
Background: Broth dilution looks for growth in wells or tubes with falling amounts of substance.

The next assay deals with Scytalidium dimidiatum. Nature of the assay: Antifungal Activity Test 1: MIC by broth microdilution method (Alamar Blue). The class given is cell-based. As to conditions: Neoscytalidium dimidiatum; for MIC: growth inhibited by 80% or more, read-out: MIC; for MIC90: concentration to be MIC in 9 strains out of the 10 strains (90%), read-out: MIC90.
Excerpt: Scytalidium dimidiatum strain of clinical isolate obtained by separation and identification from nail or stratum corneum of patients with superficial mycosis was used. The fungi pre-cultured on an SDA medium was suspended in 0.1% (w/v) Tween 80-containing sterile saline and the suspension was filtered through gauze to collect arthrospore. This was suspended in 0.1% (w/v) Tween 80-containing sterile saline, and added to a 20% Alamar Blue-containing medium to 2×10^4 cells/mL to give a fungal inoculum solution.
as §2, §1
Reference documents for measurement method: Takako Shinoda et al.: opinion proposed by Committee for Clinical Laboratory Standards of The Japanese Society for Medical Mycology (1995-1997), Method for antifungal susceptibility testing of filamentous fungus, Medical Mycology Journal, 40: 239-257, 1999. Clinical Laboratory Standards Institute/National Committee for Clinical Laboratory Standards. Reference method for broth dilution antifungal susceptibility testing of filamentous fungus. Approved Standard M38-A2. Wayne, Pa.: National Committee for Clinical Laboratory Standards, 2008. Test Results

[1] abbreviates: clinical isolate CBS200.88, growth inhibited by 80% or more, read-out: MIC.
Setting [2] is: clinical isolate CBS545.95, growth inhibited by 80% or more, read-out: MIC.
The mark [3] stands for this setting: clinical isolate CBS601.85, growth inhibited by 80% or more, read-out: MIC.
[4] abbreviates: clinical isolate CBS619.84, growth inhibited by 80% or more, read-out: MIC.
Setting [5] is: geometric mean of the 4 strains measured, read-out: GM (geometric mean of MIC).
The mark [6] stands for this setting: range of the 4 strains measured, read-out: MIC range.

Values after ≈ are worked out from the molar mass of the structure shown. Like-named read-outs stand apart in the source and are kept apart here.

For `N#C/C(=C1/SC[C@@H](c2ccc(Cl)cc2Cl)S1)n1ccnc1` [LLCZ, (−)-(E)-[(4R)-(2,4-dichlorophenyl)-1,3-dithioran-2-ylidene](1H-imidazol-1-yl)acetonitrile], the MIC – broadly, the smallest concentration in the dilution series that meets the test's criterion for growth inhibition – in the assay on Scytalidium hyalinum (setting [1]) was 0.00098 µg/mL (≈ 0.00277 µM); with Scytalidium hyalinum (setting [2]) it was 0.00098 µg/mL (≈ 0.00277 µM); in the assay on Scytalidium hyalinum (setting [3]), 0.00012 µg/mL (≈ 0.000339 µM); in the assay with Scytalidium hyalinum (setting [4]) it was 0.00098 µg/mL (≈ 0.00277 µM); in the assay on Scytalidium hyalinum (setting [5]) it was 0.00058 µg/mL (≈ 0.00164 µM); in the assay with Scytalidium hyalinum (setting [6]) it was 0.00012 to 0.00098 µg/mL (≈ 0.000339 to 0.00277 µM). The MIC in the assay on Scytalidium dimidiatum (clinical isolate 530129), with Scytalidium dimidiatum (clinical isolate 530142), in the assay on Scytalidium dimidiatum (clinical isolate 530251), in the assay with Scytalidium dimidiatum (clinical isolate 530621), with Scytalidium dimidiatum (clinical isolate 530633) and with Scytalidium dimidiatum (clinical isolate 530914) was 0.002 µg/mL (≈ 0.00565 µM) throughout. Besides, the MIC is 0.002 µg/mL (≈ 0.00565 µM) in the assay on Scytalidium dimidiatum (clinical isolate 530946), 0.002 µg/mL (≈ 0.00565 µM) with Scytalidium dimidiatum (clinical isolate 530999), 0.002 µg/mL (≈ 0.00565 µM) with Scytalidium dimidiatum (clinical isolate 531581) and 0.00098 µg/mL (≈ 0.00277 µM) with Scytalidium dimidiatum (clinical isolate 531869). Moreover, the MIC90 (in general, the lowest concentration that inhibits either 90% of growth or 90% of the strains tested, depending on the study) in the assay on Scytalidium dimidiatum amounted to 0.002 µg/mL (≈ 0.00565 µM).

Consider `Clc1ccc(COC(Cn2ccnc2)c2ccc(Cl)cc2Cl)c(Cl)c1` (centres unmarked) [MCZ, miconazole], for which the MIC in the assay with Scytalidium hyalinum (setting [1]) was 0.5 µg/mL (≈ 1.2 µM); with Scytalidium hyalinum (setting [2]) it was 0.5 µg/mL (≈ 1.2 µM); in the assay with Scytalidium hyalinum (setting [3]), 0.063 µg/mL (≈ 0.151 µM); with Scytalidium hyalinum (setting [4]), 0.5 µg/mL (≈ 1.2 µM); with Scytalidium hyalinum (setting [5]), 0.3 µg/mL (≈ 0.721 µM); with Scytalidium hyalinum (setting [6]) it was 0.063 to 0.5 µg/mL (≈ 0.151 to 1.2 µM). Also, the MIC is 1 µg/mL (≈ 2.4 µM) with Scytalidium dimidiatum (clinical isolate 530129); 1 µg/mL (≈ 2.4 µM) in the assay with Scytalidium dimidiatum (clinical isolate 530142); 1 µg/mL (≈ 2.4 µM) in the assay on Scytalidium dimidiatum (clinical isolate 530251); 1 µg/mL (≈ 2.4 µM) in the assay on Scytalidium dimidiatum (clinical isolate 530621); 0.5 µg/mL (≈ 1.2 µM) with Scytalidium dimidiatum (clinical isolate 530633); 1 µg/mL (≈ 2.4 µM) with Scytalidium dimidiatum (clinical isolate 530914). Further, the MIC worked out at 1 µg/mL (≈ 2.4 µM) with Scytalidium dimidiatum (clinical isolate 530946), 0.5 µg/mL (≈ 1.2 µM) with Scytalidium dimidiatum (clinical isolate 530999), 0.5 µg/mL (≈ 1.2 µM) in the assay with Scytalidium dimidiatum (clinical isolate 531581) and 0.5 µg/mL (≈ 1.2 µM) in the assay on Scytalidium dimidiatum (clinical isolate 531869). Further, the MIC90 in the assay on Scytalidium dimidiatum is 1 µg/mL (≈ 2.4 µM).

For the compound `CN(C/C=C/C#CC(C)(C)C)Cc1cccc2ccccc12` [TBF, terbinafine], the MIC was 0.25 µg/mL (≈ 0.858 µM) in the assay on Scytalidium hyalinum (setting [1]); 0.5 µg/mL (≈ 1.72 µM) with Scytalidium hyalinum (setting [2]); 1 µg/mL (≈ 3.43 µM) in the assay with Scytalidium hyalinum (setting [3]); 0.25 µg/mL (≈ 0.858 µM) with Scytalidium hyalinum (setting [4]); 0.42 µg/mL (≈ 1.44 µM) in the assay with Scytalidium hyalinum (setting [5]); 0.25 to 1 µg/mL (≈ 0.858 to 3.43 µM) in the assay on Scytalidium hyalinum (setting [6]). The MIC in the assay on Scytalidium dimidiatum (clinical isolate 530129) came to 0.5 µg/mL (≈ 1.72 µM); with Scytalidium dimidiatum (clinical isolate 530142), 0.25 µg/mL (≈ 0.858 µM); in the assay on Scytalidium dimidiatum (clinical isolate 530251) it was 0.5 µg/mL (≈ 1.72 µM); in the assay on Scytalidium dimidiatum (clinical isolate 530621) it was 0.5 µg/mL (≈ 1.72 µM); in the assay on Scytalidium dimidiatum (clinical isolate 530633), 0.25 µg/mL (≈ 0.858 µM); with Scytalidium dimidiatum (clinical isolate 530914), 0.25 µg/mL (≈ 0.858 µM). Also, the MIC in the assay on Scytalidium dimidiatum (clinical isolate 530946) stood at 1 µg/mL (≈ 3.43 µM); in the assay with Scytalidium dimidiatum (clinical isolate 530999), 0.5 µg/mL (≈ 1.72 µM); in the assay with Scytalidium dimidiatum (clinical isolate 531581), 0.5 µg/mL (≈ 1.72 µM); with Scytalidium dimidiatum (clinical isolate 531869) it was 0.5 µg/mL (≈ 1.72 µM). The MIC90 in the assay on Scytalidium dimidiatum was 0.5 µg/mL (≈ 1.72 µM).

In the case of `C[C@@H](c1ncncc1F)[C@](O)(Cn1cncn1)c1ccc(F)cc1F` [VCZ, voriconazole], the MIC in the assay on Scytalidium hyalinum (setting [1]) was 0.13 µg/mL (≈ 0.372 µM); with Scytalidium hyalinum (setting [2]) it was 0.063 µg/mL (≈ 0.18 µM); with Scytalidium hyalinum (setting [3]) it was 0.016 µg/mL (≈ 0.0458 µM); in the assay with Scytalidium hyalinum (setting [4]) it was 0.13 µg/mL (≈ 0.372 µM); in the assay with Scytalidium hyalinum (setting [5]), 0.064 µg/mL (≈ 0.183 µM); in the assay with Scytalidium hyalinum (setting [6]), 0.016 to 0.13 µg/mL (≈ 0.0458 to 0.372 µM). For the same compound, the MIC with Scytalidium dimidiatum (clinical isolate 530129) was determined as 0.25 µg/mL (≈ 0.716 µM); in the assay on Scytalidium dimidiatum (clinical isolate 530142) it was 0.25 µg/mL (≈ 0.716 µM); with Scytalidium dimidiatum (clinical isolate 530251) it was 0.13 µg/mL (≈ 0.372 µM); with Scytalidium dimidiatum (clinical isolate 530621), 0.25 µg/mL (≈ 0.716 µM); in the assay with Scytalidium dimidiatum (clinical isolate 530633), 0.25 µg/mL (≈ 0.716 µM); in the assay on Scytalidium dimidiatum (clinical isolate 530914), 0.25 µg/mL (≈ 0.716 µM). Also, the MIC with Scytalidium dimidiatum (clinical isolate 530946) came out at 0.25 µg/mL (≈ 0.716 µM); in the assay on Scytalidium dimidiatum (clinical isolate 530999), 0.13 µg/mL (≈ 0.372 µM); with Scytalidium dimidiatum (clinical isolate 531581), 0.25 µg/mL (≈ 0.716 µM); in the assay with Scytalidium dimidiatum (clinical isolate 531869) it was 0.13 µg/mL (≈ 0.372 µM). For the same compound, the MIC90 in the assay with Scytalidium dimidiatum came to 0.25 µg/mL (≈ 0.716 µM).
